Results taken from US20260240931A1 (priority 2022, published 2026).

Key:
[1] = tested on: human hair follicle dermal papilla cells (HDPs); settings: 100 nM
Description: C57BL/6 mice (male, five weeks old) were purchased from Orient Bio. In addition, the mice were raised with sufficient water and food. The animal experiment of the present disclosure was performed in accordance with the guidelines ([…]-2021 Jul. 18-1) of the Institutional Animal Care and Use Committee (IACUC) at Sungkyunkwan University. The HDP cells were cultured in a HDP growth medium under conditions of 37° C. and 5% CO2.
Cell proliferation analysis was performed in the presence or absence of dihydrotestosterone ([…]). […] The optical density was detected at 540 nm.

[2] = tested on: testosterone-induced androgenetic alopecia model; assay: testosterone-induced androgenetic alopecia model: hair growth, skin color score, hair type frequency, hair thickness; assay type: in vivo, C57BL/6 mice; settings: on 1 week
Description: A testosterone-induced androgenetic alopecia model was fabricated using C57BL/6 mice. C57BL/6 mice (n=6) were divided into the following five groups: Normal group, Vehicle control group: Experimental group treated with 40 μg/kg/week testosterone, Experimental group treated with 5 mg/day Cs-EE (Connarus semidecandrus Jack. extract according to the present disclosure), Experimental group treated with 10 mg/day Cs-EE, and Positive control group: Experimental group treated with 5 mg/kg/day finasteride. To confirm a hair growth promoting effect of Cs-EE, the dorsal part of each mouse was treated with hair removal cream and shaved using an electric clipper twice; seven and three days before the first testosterone treatment.
40 μg/kg of testosterone was dissolved in sesame oil and then subcutaneously injected once a week four times. Thereafter, in the case of the Cs-EE-treated experimental group, Cs-EE diluted with PBS and DMSO (ratio of 1:1) was applied to the back part of the mouse once every day for three weeks. As the positive control group, 5 mg of finasteride was treated instead of Cs-EE of the present disclosure. Two days after the testosterone injection, mice in all experimental groups were euthanized. Thereafter, the dorsal hairs were isolated from each experimental group to confirm hair type frequency and hair thickness. […]

SMILES	cytotoxicity to HDP cells (FIG. 9B) [1]	hair growth on shaved skin (FIG. 2) [2]
C[C@]12CCC(=O)C[C@@H]1CC[C@@H]1[C@@H]2CC[C@]2(C)[C@@H](O)CC[C@@H]12 [DHT, dihydrotestosterone]	cytotoxic	–
CC(C)(C)NC(=O)[C@H]1CC[C@H]2[C@@H]3CC[C@H]4NC(=O)C=C[C@]4(C)[C@H]3CC[C@]12C [finasteride]	–	remained hairless
